Reference: patent US20100021505A1, “Composition and method to prevent or reduce diarrhea and steatorrhea in HIV patients” (priority 2008, published 2010)
“Also recorded” adds a separate entry of the source.

Key:
[1] = tested on: pancrelipase; assay: Pancrelipase reactivation by colipase; assay type: biochemical; conditions: for % Lipase Activity with Colipase: colipase 5 μg/mL; for effect of added colipase on the inhibition of pancrelipase (in words): excess colipase added to reaction mixture
Method: In brief, the above lipase assay procedure was used with the following variation: colipase solution replaced the distilled water so the concentration of colipase in the final reaction mixture was 5 μg/mL.

[2] = tested on: HIV patients; conditions: Kakuda et al. 1998; cited from earlier work
[3] = target: T1, pancrelipase (Sus scrofa, UniProt P00591); assay: Lipase assay (USP titrimetric): inhibition of pancrelipase by HAART drugs and excipients; assay type: biochemical
T1 sequence (P00591 1-450): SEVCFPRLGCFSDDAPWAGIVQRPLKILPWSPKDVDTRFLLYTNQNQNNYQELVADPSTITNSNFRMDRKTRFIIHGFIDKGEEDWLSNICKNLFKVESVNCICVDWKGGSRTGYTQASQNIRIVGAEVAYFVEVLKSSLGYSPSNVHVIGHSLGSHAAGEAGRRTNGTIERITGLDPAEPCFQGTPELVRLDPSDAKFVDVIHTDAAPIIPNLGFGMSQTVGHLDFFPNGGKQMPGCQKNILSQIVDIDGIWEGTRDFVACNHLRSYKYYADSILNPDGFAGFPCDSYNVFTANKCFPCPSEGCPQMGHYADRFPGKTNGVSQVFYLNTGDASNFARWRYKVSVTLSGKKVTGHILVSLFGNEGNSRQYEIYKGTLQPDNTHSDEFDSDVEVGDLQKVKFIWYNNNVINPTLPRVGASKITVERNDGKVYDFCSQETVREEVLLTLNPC
Method: The enzyme sources consisted of USP Reference Standard Pancrelipase, USP Reference Standard Trypsin, colipase (Sigma Chemical Co.), and enterokinase (ICN Biochemicals). Appropriate concentrations of enzyme reference standard were prepared in cold distilled water, as described in USP reference assay procedures. The Infectious Disease Clinic in Somerville, N.J. provided the HAART medications. Pure drugs could not be obtained so commercial drug preparations were used in the assays.
One unit (U) of lipase activity is defined as the amount of enzyme that liberates one μequivalent of free fatty acid from triglycerides per minute at pH 9.0 and 37° C. Lipase activity (U/mg) was determined by a lipase specific titrimetric assay described in the United States Pharmacopeia (USP), Volume XXII. In brief, the substrate consists of 10% olive oil in acacia solution, 40-mg/mL sodium taurocholate, 0.075M calcium chloride, 0.05M Tris in 3.0M NaCl buffer solution (pH 7.5) and distilled water. The emulsified substrate is incubated at 37° C. and brought to pH 9.0 with 0.02N NaOH. At time zero, 1.0 mL of enzyme solution was added. A pH stat autotitrator was used to maintain pH 9.0 and the volume of 0.02 N NaOH dispensed per unit time was recorded for five (5) minutes. From the initial slope of this plot, lipase activity was calculated using the following equation: […]

[4] = tested on: pancrelipase; assay: Recovery of pancrelipase activity after inhibition, by addition of excess lipase; assay type: biochemical
Method: The above procedure was used to monitor pancrelipase activity with the exception that drug was not preincubated with the substrate. At time zero 1.0 mL of pancrelipase was added to initiate the reaction. At five (5) minutes, 1.0 mL of HAART drug solution was added to the reaction mixture to cause inhibition of lipase activity. At twelve (12) minutes an additional 1.0 mL of pancrelipase was added to the reaction mixture to overcome HAART inhibition. The reaction was monitored for twenty (20) minutes.

Compound | % Lipase Activity No Colipase ([1]; Drug Conc. 0.002 mg/mL) | % Lipase Activity with Colipase ([1]; Drug Conc. 0.002 mg/mL) | effect of added colipase on the inhibition of pancrelipase (in words) [1] | HIV patients experiencing diarrhea [2] | inhibition of pancrelipase (in words) [3] | % Pancrelipase Activity ([4]; after addition of drug solution at 5 minutes, before excess lipase) | % Reactivation of Pancrelipase ([4]; after additional 1.0 mL of pancrelipase at 12 minutes) | % Lipase Activity No Colipase ([1]; Drug Conc. 10.0 mg/mL) | % Lipase Activity with Colipase ([1]; Drug Conc. 10.0 mg/mL)
CCCCCCCCCCC[C@@H](C[C@@H]1OC(=O)[C@H]1CCCCCC)OC(=O)[C@H](CC(C)C)NC=O [ORLISTAT ®, reference compound] | 37% | 29% | no effect | – | – | – | – | – | –
Cc1c(O)cccc1C(=O)N[C@@H](CSc1ccccc1)[C@H](O)CN1C[C@H]2CCCC[C@H]2C[C@H]1C(=O)NC(C)(C)C [nelfinavir, Nelfinavir] | – | – | – | 12-20% | – | – | – | – | –
D-α-tocopheryl polyethylene glycol 1000 succinate [TPGS] | – | – | Pancrelipase inhibition was reversed; also recorded: restored pancrelipase activity | – | significant inhibition; also recorded: significantly inhibited | 55% | 98% | 21% | 79%
